Reference: PMC11721672, “Design, Structure–Activity Relationships, and Computational Modeling Studies of a Series of α-Helix Biased, Ultra-Short Glucagon-like Peptide-1 Receptor Agonists” (Molecules, 2024)
Like-named read-outs stand apart in the source and are kept apart here. Square brackets hold non-standard residues; d marks the D form. Peptide text beside a SMILES is read from it. Bip = N[C@@H](Cc1ccc(-c2ccccc2)cc1)C(=O)O; αMePhe(2-F) = C[C@](N)(Cc1ccccc1F)C(=O)O; Phe(2-F) = N[C@@H](Cc1ccccc1F)C(=O)O; Aib = CC(C)(N)C(=O)O

Biological target: T1, hGLP1 receptor (Homo sapiens, UniProt P43220)
T1 construct: expressed in transfected cells; host or cells: HEK (human embryonic kidney) cells co-expressing hGLP1 receptor and CRE-Luciferase
T1 sequence (P43220 24-463): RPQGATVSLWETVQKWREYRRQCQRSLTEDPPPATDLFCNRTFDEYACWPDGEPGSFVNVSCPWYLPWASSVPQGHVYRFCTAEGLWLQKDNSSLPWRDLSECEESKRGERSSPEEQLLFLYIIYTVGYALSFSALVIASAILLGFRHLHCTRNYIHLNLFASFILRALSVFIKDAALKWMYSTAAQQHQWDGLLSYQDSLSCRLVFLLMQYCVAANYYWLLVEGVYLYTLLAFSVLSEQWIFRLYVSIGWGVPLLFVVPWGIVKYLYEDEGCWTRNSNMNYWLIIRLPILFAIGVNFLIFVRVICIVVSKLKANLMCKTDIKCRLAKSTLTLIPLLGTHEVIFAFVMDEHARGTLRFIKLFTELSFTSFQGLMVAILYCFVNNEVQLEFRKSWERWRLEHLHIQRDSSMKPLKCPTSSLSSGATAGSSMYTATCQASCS
Assay: GLP-1 receptor agonism assay (HTRF cAMP, HEK cells co-expressing hGLP1 receptor and CRE-Luciferase)
Type: cell-based
Conditions: for Emax: HEK293, Table 6 potency profile; for EC50 / pEC50 / dpEC50 (contribution of Cα-methylation): 0% HSA; for EC50: read-out: cAMP EC50; for rescue of potency by Aib versus Ala substitution: Aib analog versus Ala analog at the same position; for decreased potency by Aib substitution: Aib-scanning, versus parent analog RXL-101; for dpEC50 (contribution of Cα-methylation): dpEC50 = pEC50 (Aib) − pEC50 (Ala) − 0.97, Aib peptide versus the Ala peptide of the same line; for decreased potency of Aib analog versus Ala analog: same position, Ala superior to Aib
Protocol: Human embryonic kidney cells (HEK) co-expressing the hGLP1 receptor and CRE-Luciferase construct were used to determine agonist potency in this assay. The cells were thawed briefly at 37 °C, transferred to a sterile tube, and re-suspended in complete media at 37 °C. Cells were centrifuged at 1000 rpm for 5 min and collected; the cells were then re-suspended in an assay buffer consisting of Dulbecco’s phosphate-buffered saline (DPBS, GIBCO) with 500 μM of the phosphodiesterase inhibitor 3-isobutyl-1-methylxanthine (IBMX). The assay medium had 0% serum albumin, as specified in Table 1, Table 2, Table 3 and Table 4. The optimal cell density was determined to be 1000 cells/well. Cells were added to wells in 384-well plates containing appropriate pre-prepared dilutions of compounds (test peptides or reference compound exendin-4), sealed, and incubated with CO2 for 30 min. Test peptide solutions were diluted from 10 mM stock solutions to be used in two separate runs (performed in triplicate) from a maximal concentration of 1.0 μM, with 11 concentrations tested for each peptide using serial 1:3 dilution from this maximal concentration. […] The agonist assay was a homogeneous time-resolved fluorescence (HTRF) assay (Cisbio). Following incubation of the cells for 30 min with test or reference peptides, 5 μL of the cAMP acceptor cAMP-d2, prepared previously as a working solution from frozen stock (1:20 dilution), was added to each well of the assay plate along with 5 μL of anti-cAMP antibody-cryptate working solution (diluted 1:20 from frozen stock). The wells were incubated for 1 h at room temperature, and fluorescence was then read at 665 and 615 nm with an Envision reader with a TRF laser. Data were saved and analyzed using Prism software (GraphPad). Concentration–response analysis was performed using 4-parameter logistic fits of the resulting data, and EC50 values were obtained for each test and reference compound.

[1] = Table 1, Phe6 modifications, average of two independent experiments in triplicate (RXL-3039 tested once)
[2] = Table 2, Ala-scanning, >1000 nM = out of range

Compound | Emax | EC50 [1] | decreased potency by Aib substitution | dpEC50 (contribution of Cα-methylation) | also measured
C[C@@H](O)[C@H](NC(=O)CNC(=O)[C@H](CCC(=O)O)NC(=O)C(C)(C)NC(=O)[C@@H](N)Cc1c[nH]cn1)C(=O)N[C@@H](Cc1c(F)c(F)c(F)c(F)c1F)C(=O)N[C@H](C(=O)N[C@@H](CO)C(=O)N[C@@H](CC(=O)O)C(=O)N[C@@H](Cc1ccc(-c2ccccc2)cc1)C(=O)N[C@@H](Cc1ccc(-c2ccccc2)cc1)C(N)=O)[C@@H](C)O [RXL-3018, His-Aib-Glu-Gly-Thr-Phe(2,3,4,5,6-F)-Thr-Ser-Asp-Bip-Bip-NH2] | 102% | 0.3 nM |  |  | GLP-1R agonist potency relative to RXL-3000 (versus RXL-3000): threefold less potent
C[C@H](N)C(=O)NC(C)(C)C(=O)N[C@@H](CCC(=O)O)C(=O)NCC(=O)N[C@H](C(=O)N[C@@H](Cc1ccccc1F)C(=O)N[C@H](C(=O)N[C@@H](CO)C(=O)N[C@@H](CC(=O)O)C(=O)N[C@@H](Cc1ccc(-c2ccccc2)cc1)C(=O)N[C@@H](Cc1ccc(-c2ccccc2)cc1)C(N)=O)[C@@H](C)O)[C@@H](C)O [RXL-3001, Ala-Aib-Glu-Gly-Thr-Phe(2-F)-Thr-Ser-Asp-Bip-Bip-NH2] | 108% |  |  |  | EC50 [2]: 21.9 nM
C[C@@H](O)[C@H](NC(=O)C(C)(C)NC(=O)[C@H](CCC(=O)O)NC(=O)C(C)(C)NC(=O)[C@@H](N)Cc1c[nH]cn1)C(=O)N[C@@](C)(Cc1ccccc1F)C(=O)N[C@H](C(=O)N[C@@H](CO)C(=O)N[C@@H](CC(=O)O)C(=O)N[C@@H](Cc1ccc(-c2ccccc2)cc1)C(=O)N[C@@H](Cc1ccc(-c2ccccc2)cc1)C(N)=O)[C@@H](C)O [RXL-3032, His-Aib-Glu-Aib-Thr-α-Me-Phe(2-F)-Thr-Ser-Asp-Bip-Bip-NH2] (H-H[Aib]E[Aib]T[αMePhe(2-F)]TSD[Bip][Bip]-NH2) | 118% |  | ≥ 100 fold | 0.37 | rescue of potency by Aib versus Ala substitution: about 10 fold; pEC50 (Table 4, Aib-scan peptides): 7.80
C[C@@H](O)[C@H](NC(=O)CNC(=O)[C@H](CCC(=O)O)NC(=O)C(C)(C)NC(=O)[C@@H](N)Cc1c[nH]cn1)C(=O)N[C@@](C)(Cc1ccccc1F)C(=O)N[C@H](C(=O)N[C@@H](CO)C(=O)N[C@@H](CC(=O)O)C(=O)N[C@@H](Cc1ccc(-c2ccccc2)cc1)C(=O)NC(C)(C)C(N)=O)[C@@H](C)O [RXL-3052, His-Aib-Glu-Gly-Thr-α-Me-Phe(2-F)-Thr-Ser-Asp-Bip-Aib-NH2] (H-H[Aib]EGT[αMePhe(2-F)]TSD[Bip][Aib]-NH2) | 112% |  |  | 1.11 | rescue of potency by Aib versus Ala substitution: more than 100 fold
C[C@@H](O)[C@H](NC(=O)[C@](C)(Cc1ccccc1F)NC(=O)C(C)(C)NC(=O)CNC(=O)[C@H](CCC(=O)O)NC(=O)C(C)(C)NC(=O)[C@@H](N)Cc1c[nH]cn1)C(=O)N[C@@H](CO)C(=O)N[C@@H](CC(=O)O)C(=O)N[C@@H](Cc1ccc(-c2ccccc2)cc1)C(=O)N[C@@H](Cc1ccc(-c2ccccc2)cc1)C(N)=O [RXL-3033, His-Aib-Glu-Gly-Aib-α-Me-Phe(2-F)-Thr-Ser-Asp-Bip-Bip-NH2] (H-H[Aib]EG[Aib][αMePhe(2-F)]TSD[Bip][Bip]-NH2) | 120% |  |  | −1.00 | 
C[C@@H](O)[C@H](NC(=O)CNC(=O)[C@H](CCC(=O)O)NC(=O)C(C)(C)NC(=O)[C@@H](N)Cc1c[nH]cn1)C(=O)N[C@@H](Cc1ccccc1F)C(=O)N[C@H](C(=O)N[C@@H](CO)C(=O)N[C@@H](CC(=O)O)C(=O)N[C@@H](Cc1ccc(-c2ccccc2)cc1)C(=O)N[C@@H](Cc1ccc(-c2ccccc2)cc1)C(N)=O)[C@@H](C)O [RXL-3000, His-Aib-Glu-Gly-Thr-Phe(2-F)-Thr-Ser-Asp-Bip-Bip-NH2] | 109% | 0.1 nM |  |  | EC50 [2]: 0.1 nM; EC50 (Table 3, Aib-scanning, >1000 nM = out of range): 0.1 nM; GLP-1R agonist potency greater versus the parent peptide RXL-100 (versus RXL-100): approximately fivefold
C[C@@H](O)[C@H](NC(=O)CNC(=O)[C@H](CCC(=O)O)NC(=O)C(C)(C)NC(=O)[C@@H](N)Cc1c[nH]cn1)C(=O)N[C@@](C)(Cc1ccccc1F)C(=O)NC(C)(C)C(=O)N[C@@H](CO)C(=O)N[C@@H](CC(=O)O)C(=O)N[C@@H](Cc1ccc(-c2ccccc2)cc1)C(=O)N[C@@H](Cc1ccc(-c2ccccc2)cc1)C(N)=O [RXL-3034, His-Aib-Glu-Gly-Thr-α-Me-Phe(2-F)-Aib-Ser-Asp-Bip-Bip-NH2] (H-H[Aib]EGT[αMePhe(2-F)][Aib]SD[Bip][Bip]-NH2) | 106% |  | ≥ 100 fold | −1.60 | pEC50 (Table 4, Aib-scan peptides): 7.04; decreased potency of Aib analog versus Ala analog: about 10 fold
C[C@@H](O)[C@H](NC(=O)CNC(=O)[C@H](CCC(=O)O)NC(=O)C(C)(C)NC(=O)[C@@H](N)Cc1c[nH]cn1)C(=O)N[C@@](C)(Cc1ccccc1F)C(=O)N[C@H](C(=O)N[C@@H](CO)C(=O)NC(C)(C)C(=O)N[C@@H](Cc1ccc(-c2ccccc2)cc1)C(=O)N[C@@H](Cc1ccc(-c2ccccc2)cc1)C(N)=O)[C@@H](C)O [RXL-3036, His-Aib-Glu-Gly-Thr-α-Me-Phe(2-F)-Thr-Ser-Aib-Bip-Bip-NH2] (H-H[Aib]EGT[αMePhe(2-F)]TS[Aib][Bip][Bip]-NH2) | 96.7% |  | ≥ 100 fold | −2.26 | pEC50 (Table 4, Aib-scan peptides): 7.04; decreased potency of Aib analog versus Ala analog: about fivefold
C[C@@H](O)[C@H](NC(=O)CNC(=O)[C@H](CCC(=O)O)NC(=O)C(C)(C)NC(=O)[C@@H](N)Cc1c[nH]cn1)C(=O)N[C@@H](Cc1ccc(-c2ccccc2)cc1)C(=O)N[C@H](C(=O)N[C@@H](CO)C(=O)N[C@@H](CC(=O)O)C(=O)N[C@@H](Cc1ccc(-c2ccccc2)cc1)C(=O)N[C@@H](Cc1ccc(-c2ccccc2)cc1)C(N)=O)[C@@H](C)O [RXL-3024, His-Aib-Glu-Gly-Thr-Bip-Thr-Ser-Asp-Bip-Bip-NH2] (H-H[Aib]EGT[Bip]TSD[Bip][Bip]-NH2) | 102% | 10.8 nM |  |  | 
C[C@@H](O)[C@H](NC(=O)CNC(=O)[C@H](CCC(=O)O)NC(=O)C(C)(C)NC(=O)[C@@H](N)Cc1c[nH]cn1)C(=O)N[C@@H](Cc1ccccc1Cl)C(=O)N[C@H](C(=O)N[C@@H](CO)C(=O)N[C@@H](CC(=O)O)C(=O)N[C@@H](Cc1ccc(-c2ccccc2)cc1)C(=O)N[C@@H](Cc1ccc(-c2ccccc2)cc1)C(N)=O)[C@@H](C)O [RXL-3011, His-Aib-Glu-Gly-Thr-Phe(2-Cl)-Thr-Ser-Asp-Bip-Bip-NH2] | 91.3% | 0.9 nM |  |  | 
C[C@@H](O)[C@H](NC(=O)CNC(=O)[C@H](CCC(=O)O)NC(=O)C(C)(C)NC(=O)[C@@H](N)Cc1c[nH]cn1)C(=O)N[C@@H](Cc1cc(F)c(F)c(F)c1)C(=O)N[C@H](C(=O)N[C@@H](CO)C(=O)N[C@@H](CC(=O)O)C(=O)N[C@@H](Cc1ccc(-c2ccccc2)cc1)C(=O)N[C@@H](Cc1ccc(-c2ccccc2)cc1)C(N)=O)[C@@H](C)O [RXL-3017, His-Aib-Glu-Gly-Thr-Phe(3,4,5-F)-Thr-Ser-Asp-Bip-Bip-NH2] | 113% | 7.2 nM |  |  | 
C[C@H](NC(=O)[C@H](CCC(=O)O)NC(=O)C(C)(C)NC(=O)[C@@H](N)Cc1c[nH]cn1)C(=O)N[C@H](C(=O)N[C@@H](Cc1ccccc1F)C(=O)N[C@H](C(=O)N[C@@H](CO)C(=O)N[C@@H](CC(=O)O)C(=O)N[C@@H](Cc1ccc(-c2ccccc2)cc1)C(=O)N[C@@H](Cc1ccc(-c2ccccc2)cc1)C(N)=O)[C@@H](C)O)[C@@H](C)O [RXL-3037, His-Aib-Glu-Ala-Thr-Phe(2-F)-Thr-Ser-Asp-Bip-Bip-NH2] (H-H[Aib]EAT[Phe(2-F)]TSD[Bip][Bip]-NH2) | 73.8% |  |  |  | EC50 [2]: 210 nM; pEC50 (Table 4, Ala-scan peptides): 6.46; decreased potency (Aib/Ala comparison) (versus respective parent analog): 2000 fold
C[C@@H](O)[C@H](NC(=O)CNC(=O)[C@H](CCC(=O)O)NC(=O)C(C)(C)NC(=O)C(C)(C)N)C(=O)N[C@@](C)(Cc1ccccc1F)C(=O)N[C@H](C(=O)N[C@@H](CO)C(=O)N[C@@H](CC(=O)O)C(=O)N[C@@H](Cc1ccc(-c2ccccc2)cc1)C(=O)N[C@@H](Cc1ccc(-c2ccccc2)cc1)C(N)=O)[C@@H](C)O [RXL-3030, Aib-Aib-Glu-Gly-Thr-α-Me-Phe(2-F)-Thr-Ser-Asp-Bip-Bip-NH2] (H-[Aib][Aib]EGT[αMePhe(2-F)]TSD[Bip][Bip]-NH2) | 112% |  | < 10 fold | −0.26 | 
